The record followed here is patent publication US8969395B2, “Triterpenoid derivatives useful as antiproliferative agents” (Universidade de Coimbra, priority 2009, dated 2015).

Common to all, as to format: cell-based
Assay [1] deals with HepG2 (human hepatocellular carcinoma). Put plainly: Cytotoxic activity, MTT assay, HepG2. The conditions noted are these: 72 h, mean ±SD. How it is done:
(§1) The cytotoxic of compounds of formulas (I) and (II) 14-50 was assessed towards human cancer (HepG2, HeLa and Jurkat) cell lines (Table 3 below). Compounds presented on Table 4 were also tested against a non-tumoral liver cell line (Chang liver). The cell viability of HeLa, HepG2 and Chang liver cells was determined by the MTT assay. Briefly, exponentially growing cells were plated in 96-well plates at a density of 1×10^3, 8×10^3 and 5×10^3 cells/well respectively and incubated for 24 h before treatment. The grown medium was replaced with one contained the tested compounds dissolved in DMSO (final DMSO concentration <0.1%) at different concentrations, in triplicate wells, and cells were incubated for 72 h. After incubation with the compounds, the medium was removed and MTT solution (0.5 mg/ml, 100 μl) was added to each well and the plates were incubated again for 1 h. DMSO (100 μl) was then added to dissolve the formazan crystals and the plates were immediately read at 550 nm on an ELISA plate reader (Tecan Sunrise MR20-301, TECAN, Austria). For the Jurkat cells, the cell viability was determined by the XTT assay. Briefly, exponentially growing cells were plated in 96-well plates at a density of 5.5×10^3 cells/well, treated with different concentrations of compounds in triplicate and incubated for 72 h. After incubation with the compounds the XTT labeling mixture (100 μl) were added to each of the wells and after a 4 h incubation period the plates were read at 450 nm on an ELISA plate reader. […] Known for its cytotoxic activity, betulinic acid 2 was used as a positive control in this experimentation. […] All the IC50 results represent an average of a minimum of three experiments and were expressed as means±standard deviation (SD).
(Formazan colour is commonly taken as a measure of viable cells.)

Assay [2] relates to HeLa (human cervical adenocarcinoma). Put plainly: Cytotoxic activity, MTT assay, HeLa. The conditions noted are these: 72 h, mean ±SD. The protocol:
The cytotoxic of compounds of formulas (I) and (II) 14-50 was assessed towards human cancer (HepG2, HeLa and Jurkat) cell lines (Table 3 below). Compounds presented on Table 4 were also tested against a non-tumoral liver cell line (Chang liver). The cell viability of HeLa, HepG2 and Chang liver cells was determined by the MTT assay. Briefly, exponentially growing cells were plated in 96-well plates at a density of 1×10^3, 8×10^3 and 5×10^3 cells/well respectively and incubated for 24 h before treatment. The grown medium was replaced with one contained the tested compounds dissolved in DMSO (final DMSO concentration <0.1%) at different concentrations, in triplicate wells, and cells were incubated for 72 h. After incubation with the compounds, the medium was removed and MTT solution (0.5 mg/ml, 100 μl) was added to each well and the plates were incubated again for 1 h. DMSO (100 μl) was then added to dissolve the formazan crystals and the plates were immediately read at 550 nm on an ELISA plate reader (Tecan Sunrise MR20-301, TECAN, Austria). For the Jurkat cells, the cell viability was determined by the XTT assay. Briefly, exponentially growing cells were plated in 96-well plates at a density of 5.5×10^3 cells/well, treated with different concentrations of compounds in triplicate and incubated for 72 h. After incubation with the compounds the XTT labeling mixture (100 μl) were added to each of the wells and after a 4 h incubation period the plates were read at 450 nm on an ELISA plate reader. […] Known for its cytotoxic activity, betulinic acid 2 was used as a positive control in this experimentation.

In another assay the test system is Jurkat (human leukemia). The experiment in a line: Cytotoxic activity, XTT assay, Jurkat. As to conditions: 72 h, mean ±SD. How it is done:
as §1

Assay [3] relates to HT-29 (human colon adenocarcinoma). Put plainly: Cytotoxic activity, HT-29. The conditions noted are these: mean ±SD. The protocol:
Compounds presented in Table 6 were also tested in the following cell lines: PC-3 (human prostate adenocarcinoma), LNCaP (human prostate adenocarcinoma), LAPC4 (human prostate adenocarcinoma) and HT-29 (human colon adenocarcinoma).

As usually defined, the IC50 is the concentration at which inhibition is half-maximal. Read a low IC50 as higher potency.

As for “3β-(1H-imidazole-2′-methyl-1-carbonyloxy)-lup-20(29)-en-28-oic acid [Compound 29]”, the IC50 in assay [1] was determined as 7.3 ± 1 µM; in assay [2], 7.5 ± 1.5 µM; in the assay with Jurkat (human leukemia), 16.1 ± 3.3 µM; in assay [3], 5.7 ± 0.6 µM.
For `C=C(C)[C@@H]1CC[C@]2(COC(=O)n3ccnc3C)CC[C@]3(C)[C@H](CC[C@@H]4[C@@]5(C)CC[C@H](O)C(C)(C)[C@@H]5CC[C@]43C)[C@@H]12` [Compound 15, 3β-hydroxy-lup-20(29)-en-28-yl-2′-methyl-1H-imidazole-1-carboxylate], the IC50 in assay [1] turned out to be 8.1 ± 0.4 µM; in assay [2], 11 ± 1.7 µM; in the assay with Jurkat (human leukemia) it was 15.8 ± 2.4 µM; in assay [3], 16.2 ± 2.1 µM.
Consider `C=C(C)[C@@H]1CC[C@]2(C(=O)OC)CC[C@]3(C)[C@H](CC[C@@H]4[C@@]5(C)CC[C@H](OC(=O)n6ccnc6C)C(C)(C)[C@@H]5CC[C@]43C)[C@@H]12` [Compound 34, Methyl 3β-(2′-methyl-1H-imidazole-1-carbonyloxy)-lup-20(29)-en-28-oate], for which the IC50 was 13.4 ± 1.7 µM in assay [1], 13.4 ± 1.7 µM in assay [2], 16.4 ± 2.4 µM with Jurkat (human leukemia) and 12.9 ± 0.5 µM in assay [3].
Turning to `C=C(COC)[C@@H]1CC[C@]2(COC(=O)n3ccnc3C)CC[C@]3(C)[C@H](CC[C@@H]4[C@@]5(C)CC[C@H](O)C(C)(C)[C@@H]5CC[C@]43C)[C@@H]12` [Compound 36, 3β-hydroxy-30-methoxylup-20(29)-en-28-yl-2′-methyl-1H-imidazole-1-carboxylate], the IC50 in assay [1] amounted to 14.4 ± 1.3 µM; in assay [2] it was 8.9 ± 2.1 µM; with Jurkat (human leukemia) it was 24.8 ± 4.7 µM; in assay [3], 10.4 ± 1.6 µM.
The corresponding values for `Cc1nccn1C(=O)OC[C@]12CC[C@@H]([C@@H](C)C=O)C1[C@H]1CC[C@@H]3[C@@]4(C)CC[C@H](O)C(C)(C)[C@@H]4CC[C@@]3(C)[C@]1(C)CC2` (stereo partly drawn) [Compound 42, 3β-hydroxy-(20R)-lupan-29-oxo-28-yl-2′-methyl-1H-imidazole-1-carboxylate] are 14.3 ± 2.4 µM, 16.6 ± 1.5 µM, 21.3 ± 4.1 µM and 15.8 ± 1.7 µM.
For the molecule `C=C(C)[C@@H]1CC[C@]2(C(=O)n3ccnc3C)CC[C@]3(C)[C@H](CC[C@@H]4[C@@]5(C)CCC(=O)C(C)(C)[C@@H]5CC[C@]43C)[C@@H]12` [Compound 45, 28-(2′-methyl-1H-imidazol-1-yl)-lup-20(29)-en-3,28-dione], the concentration for half-maximal inhibition (IC50) was 5.5 ± 1.1 µM in assay [1], 4.2 ± 1.2 µM in assay [2], 9.3 ± 2.2 µM in the assay with Jurkat (human leukemia) and 4.7 ± 1.1 µM in assay [3].
For `C=C(C)[C@@H]1CC[C@]2(C(=O)n3ccnc3C)CC[C@]3(C)[C@H](CC[C@@H]4[C@@]5(C)C=CC(=O)C(C)(C)[C@@H]5CC[C@]43C)[C@@H]12` [Compound 47, 28-(2′-methyl-1H-imidazol-1-yl)-lup-1,20(29)-dien-3,28-dione], the half-inhibitory concentration (IC50) was 12.7 ± 1.2 µM in assay [1], 6.4 ± 0.8 µM in assay [2], 9.4 ± 0.8 µM with Jurkat (human leukemia) and 5.9 ± 0.3 µM in assay [3].
The corresponding values for `C=C(C)[C@@H]1CC[C@]2(C(=O)O)CC[C@]3(C)[C@H](CC[C@@H]4[C@@]5(C)C=C(OC(=O)n6ccnc6C)C(=O)C(C)(C)[C@@H]5CC[C@]43C)[C@@H]12` [Compound 50, 2-(2′-methyl-1H-imidazole-1-carbonyloxy)-3-oxolup-1,20(29)-dien-28-oic acid] are 6.8 ± 1.5 µM, 10.6 ± 0.7 µM, 12.5 ± 1.2 µM and 9 ± 1.7 µM.
